Measurements: EPA's CvTdb concentration-time database

Tests used:
Experiment in all cases: concentration in plasma after dosing
Rat [1] = settings: dosed: Oxazepam, 50 mg/kg, oral, Male, F344
Rat [2] = settings: 2 h; dosed: Oxazepam; 50 mg/kg; oral; Male; F344
Rat [3] = settings: dosed: Oxazepam, 50 mg/kg, oral, Female, F344
Rat [4] = settings: dosed: Oxazepam, 50 mg/kg, oral, Male, F344; remark: listed apart in the source
Rat [5] = settings: dosed: Oxazepam, 400 mg/kg, oral, Female, F344
Rat [6] = settings: dosed: Oxazepam, 50 mg/kg, oral, Male, F344; remark: listed apart in the source
Rat [7] = settings: dosed: Oxazepam, 200 mg/kg, oral, Female, F344
Rat [8] = settings: dosed: Oxazepam, 200 mg/kg, oral, Male, F344
Rat [9] = settings: dosed: Oxazepam, 200 mg/kg, oral, Female, F344; remark: listed apart in the source
Rat [10] = settings: dosed: Oxazepam, 400 mg/kg, oral, Male, F344
Rat [11] = settings: dosed: Oxazepam, 200 mg/kg, oral, Male, F344; remark: listed apart in the source
Rat [12] = settings: dosed: Oxazepam, 200 mg/kg, oral, Female, F344; remark: listed apart in the source
Rat [13] = settings: dosed: Oxazepam, 200 mg/kg, oral, Male, F344; remark: listed apart in the source
Rat [14] = settings: dosed: Oxazepam, 50 mg/kg, oral, Female, F344; remark: listed apart in the source
Rat [15] = settings: 1 h; dosed: Oxazepam; 50 mg/kg; oral; Female; F344
Rat [16] = settings: dosed: Oxazepam, 400 mg/kg, oral, Female, F344; remark: listed apart in the source
Rat [17] = settings: dosed: Oxazepam, 200 mg/kg, oral, Female, F344; remark: listed apart in the source
Rat [18] = settings: dosed: Oxazepam, 200 mg/kg, oral, Male, F344; remark: listed apart in the source
Rat [19] = settings: dosed: Oxazepam, 200 mg/kg, oral, Female, F344; remark: listed apart in the source
Rat [20] = settings: dosed: Oxazepam, 50 mg/kg, oral, Male, F344; remark: listed apart in the source
Rat [21] = settings: dosed: Oxazepam, oral, F344
Rat [22] = settings: dosed: Oxazepam, 50 mg/kg, oral, Female, F344; remark: listed apart in the source
Rat [23] = settings: dosed: Oxazepam, 50 mg/kg, oral, Female, F344; remark: listed apart in the source
Rat [24] = settings: dosed: Oxazepam, 200 mg/kg, oral, Male, F344; remark: listed apart in the source
Rat [25] = settings: dosed: Oxazepam, 50 mg/kg, oral, Female, F344; remark: listed apart in the source
Rat [26] = settings: 3.5 h; dosed: Oxazepam; 50 mg/kg; oral; Male; F344
Rat [27] = settings: dosed: Oxazepam, 200 mg/kg, oral, Female, F344; remark: listed apart in the source
Rat [28] = settings: dosed: Oxazepam, 200 mg/kg, oral, Male, F344; remark: listed apart in the source
Rat [29] = settings: 3.5 h; dosed: Oxazepam; 50 mg/kg; oral; Female; F344
Rat [30] = settings: dosed: Oxazepam, 200 mg/kg, oral, Male, F344; remark: listed apart in the source
Rat [31] = settings: dosed: Oxazepam, 400 mg/kg, oral, Male, F344; remark: listed apart in the source
Rat [32] = settings: dosed: Oxazepam, 50 mg/kg, oral, Female, F344; remark: listed apart in the source
Rat [33] = settings: dosed: Oxazepam, 200 mg/kg, oral, Male, F344; remark: listed apart in the source
Rat [34] = settings: 3.5 h; dosed: Oxazepam; 50 mg/kg; oral; Male; F344; remark: listed apart in the source
Rat [35] = settings: dosed: Oxazepam, 200 mg/kg, oral, Female, F344; remark: listed apart in the source
Rat [36] = settings: dosed: Oxazepam, 50 mg/kg, oral, Male, F344; remark: listed apart in the source
Rat [37] = settings: dosed: Oxazepam, 200 mg/kg, oral, Female, F344; remark: listed apart in the source

O=C1Nc2ccc(Cl)cc2C(c2ccccc2)=NC1O (stereo not given) [Oxazepam]
Settings	concentration in plasma [µg/mL]
Rat [1], 2 h	0.99
Rat [1], 18 h	0.37
Rat [3], 1 h	1.61
Rat [3], 10 h	0.82
Rat [4], 1 h	0.95
Rat [4], 10 h	0.39
Rat [5], 1 h	4.12
Rat [5], 10 h	5.63
Rat [6], 1 h	1.28
Rat [6], 10 h	0.52
Rat [7], 6 h	1
Rat [7], 20 min	1.2
Rat [8], 1 h	2.31
Rat [8], 10 h	1.25
Rat [9], 2 h	3.34
Rat [9], 18 h	3.36
Rat [10], 1 h	2.44
Rat [10], 10 h	3.96
Rat [11], 2 h	2.21
Rat [11], 18 h	1.85
Rat [12], 1 h	2.88
Rat [12], 10 h	3.47
Rat [13], 3.5 h	2.63
Rat [13], 24 h	0.52
Rat [14], 2 h	1.62
Rat [14], 18 h	0.27
Rat [16], 1 h	3.27
Rat [16], 10 h	4.28
Rat [17], 6 h	4.55
Rat [17], 20 min	1.25
Rat [18], 2 h	2.13
Rat [18], 18 h	3.14
Rat [19], 2 h	2.84
Rat [19], 18 h	0.76
Rat [20], 6 h	0.58
Rat [20], 20 min	0.4
Rat [22], 6 h	1.56
Rat [22], 20 min	0.88
Rat [23], 6 h	1.63
Rat [23], 20 min	0.76
Rat [24], 1 h	1.63
Rat [24], 10 h	2.03
Rat [25], 3.5 h	0.71
Rat [25], 24 h	0.45
Rat [27], 1 h	2.3
Rat [27], 10 h	1.72
Rat [28], 6 h	1.96
Rat [28], 20 min	1.02
Rat [30], 6 h	2.02
Rat [30], 20 min	1.47
Rat [31], 1 h	3.5
Rat [31], 10 h	1.79
Rat [32], 2 h	3.64
Rat [32], 18 h	0.27
Rat [33], 3.5 h	10.5
Rat [33], 24 h	1.32
Rat [35], 3.5 h	4.28
Rat [35], 24 h	1.46
Rat [36], 6 h	0.51
Rat [36], 20 min	0.29
Rat [37], 3.5 h	2.99
Rat [37], 24 h	10

Settings	concentration in plasma [µg/mL]
Rat [2]	0.99
Rat [15]	1.29
Rat [26]	1.07
Rat [29]	2.51
Rat [34]	1.26

concentration in plasma [µg/mL], Rat [21]
Settings	1 h	2 h	3.5 h	6 h	10 h	18 h	20 min	24 h
50 mg/kg, Female	2.85	1.9	1.17	1.23	1.38	0.28	0.56	–
50 mg/kg, Male	1.23	1	0.91	0.68	0.33	–	0.45	0.59
200 mg/kg, Female	3.02	3.87	2.7	3.91	5.16	5.03	1.25	5
200 mg/kg, Male	2.37	–	3.15	1.58	1.89	0.73	0.6	2.28
400 mg/kg, Female	4.1	–	–	–	4.48	–	–	–
400 mg/kg, Male	3.07	–	–	–	2.91	–	–	–
